Results from patent publication US10544102B2, “Benzazepine dicarboxamide compounds with secondary amide function” (Hoffmann-La Roche Inc., priority 2017, dated 2020).

Columns and labels:
human TLR7 = biological target: T1, human TLR7 (Homo sapiens, UniProt Q9NYK1); assay: HEK-Blue human TLR7 cells NF-κB SEAP reporter assay; assay type: cell-based; details: stimulation for 20 hours, Quanti Blue 640 nm
T1 construct: host or cells: HEK-Blue human TLR7 cells (HEK293-derived reporter line)
T1 sequence (Q9NYK1 27-1049): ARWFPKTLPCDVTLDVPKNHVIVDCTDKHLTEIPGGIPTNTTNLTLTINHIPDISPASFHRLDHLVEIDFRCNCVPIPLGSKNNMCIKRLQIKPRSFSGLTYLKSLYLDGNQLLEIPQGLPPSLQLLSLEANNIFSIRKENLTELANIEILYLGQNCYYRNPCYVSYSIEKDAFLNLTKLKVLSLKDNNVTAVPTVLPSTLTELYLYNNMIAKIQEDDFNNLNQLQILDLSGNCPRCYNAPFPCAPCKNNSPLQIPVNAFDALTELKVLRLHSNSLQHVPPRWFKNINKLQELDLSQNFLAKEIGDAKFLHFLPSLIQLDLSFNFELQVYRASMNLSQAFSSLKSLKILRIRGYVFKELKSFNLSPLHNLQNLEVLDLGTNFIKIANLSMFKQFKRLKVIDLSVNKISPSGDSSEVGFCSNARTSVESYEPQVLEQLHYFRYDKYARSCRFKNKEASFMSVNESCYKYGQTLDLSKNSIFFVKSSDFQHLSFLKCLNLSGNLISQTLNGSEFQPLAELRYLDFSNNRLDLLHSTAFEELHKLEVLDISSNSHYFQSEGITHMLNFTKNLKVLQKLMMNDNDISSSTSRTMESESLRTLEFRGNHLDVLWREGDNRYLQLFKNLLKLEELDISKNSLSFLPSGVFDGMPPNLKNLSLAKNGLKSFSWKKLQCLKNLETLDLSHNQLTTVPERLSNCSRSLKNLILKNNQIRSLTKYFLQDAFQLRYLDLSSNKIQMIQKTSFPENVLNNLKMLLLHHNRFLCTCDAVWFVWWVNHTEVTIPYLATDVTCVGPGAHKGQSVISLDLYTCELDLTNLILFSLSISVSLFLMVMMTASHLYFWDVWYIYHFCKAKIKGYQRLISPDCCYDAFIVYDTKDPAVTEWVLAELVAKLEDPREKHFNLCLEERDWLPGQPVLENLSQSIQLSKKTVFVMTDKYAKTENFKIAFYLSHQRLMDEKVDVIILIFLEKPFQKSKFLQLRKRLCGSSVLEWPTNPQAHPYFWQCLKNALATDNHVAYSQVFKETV
Text: (§1) For TLR8 and TLR7 activity testing, HEK-Blue human TLR8 or TLR7 cells (Invivogen, San Diego, Calif., USA) are used, respectively. These cells are designed for studying the stimulation of human TLR8 or TLR7 by monitoring the activation of NF-κB. A SEAP (secreted embryonic alkaline phosphatase) reporter gene is placed under the control of the IFN-b minimal promoter fused to five NF-κB and AP-1-binding sites. Therefore the reporter expression is regulated by the NF-κB promoter upon stimulation of human TLR8 or TLR7 for 20 hours. The cell culture supernatant SEAP reporter activity was determined using Quanti Blue kit (Invivogen, San Diego, Calif., USA) at a wavelength of 640 nm, a detection medium that turns purple/blue in the presence of alkaline phosphatase. EC50 values were determined using Activity Base analysis (ID Business Solution, Limited).

human TLR8 = biological target: T2, human TLR8 (Homo sapiens, UniProt Q9NR97); assay: HEK-Blue human TLR8 cells NF-κB SEAP reporter assay; assay type: cell-based; details: stimulation for 20 hours, Quanti Blue 640 nm
T2 construct: host or cells: HEK-Blue human TLR8 cells (HEK293-derived reporter line)
T2 sequence (Q9NR97 27-1041): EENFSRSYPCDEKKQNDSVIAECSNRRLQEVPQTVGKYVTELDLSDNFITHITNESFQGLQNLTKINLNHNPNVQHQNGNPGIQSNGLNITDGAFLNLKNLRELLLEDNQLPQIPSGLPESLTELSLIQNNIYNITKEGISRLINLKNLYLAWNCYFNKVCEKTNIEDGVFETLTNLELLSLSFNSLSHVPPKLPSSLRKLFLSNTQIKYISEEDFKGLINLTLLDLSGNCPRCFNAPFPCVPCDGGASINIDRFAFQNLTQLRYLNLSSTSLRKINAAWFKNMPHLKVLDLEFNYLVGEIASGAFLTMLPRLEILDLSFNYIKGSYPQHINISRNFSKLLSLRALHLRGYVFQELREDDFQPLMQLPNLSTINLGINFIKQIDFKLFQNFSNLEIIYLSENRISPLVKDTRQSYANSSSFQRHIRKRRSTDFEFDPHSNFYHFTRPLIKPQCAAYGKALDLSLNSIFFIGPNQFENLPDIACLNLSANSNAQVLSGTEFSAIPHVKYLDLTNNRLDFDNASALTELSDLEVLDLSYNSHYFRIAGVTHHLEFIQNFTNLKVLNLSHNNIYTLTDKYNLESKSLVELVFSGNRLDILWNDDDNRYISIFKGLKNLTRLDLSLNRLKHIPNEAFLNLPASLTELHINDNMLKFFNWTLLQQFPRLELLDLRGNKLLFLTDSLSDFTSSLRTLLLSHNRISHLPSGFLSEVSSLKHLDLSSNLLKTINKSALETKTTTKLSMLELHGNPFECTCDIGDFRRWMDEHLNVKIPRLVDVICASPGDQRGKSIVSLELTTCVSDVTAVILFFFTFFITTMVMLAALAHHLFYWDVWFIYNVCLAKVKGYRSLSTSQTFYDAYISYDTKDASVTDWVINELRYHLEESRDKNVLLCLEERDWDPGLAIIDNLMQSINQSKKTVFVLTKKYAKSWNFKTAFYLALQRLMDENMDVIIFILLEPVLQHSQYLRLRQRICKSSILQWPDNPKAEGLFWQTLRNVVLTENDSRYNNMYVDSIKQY
Text: as §1

Compound	EC50 (human TLR7)	EC50 (human TLR8)
CCCN(CCC)C(=O)C1=Cc2ccc(C(=O)NC3CCN(c4ccccc4)C3)cc2N=C(N)C1 (stereo not shown) [Example 24, 2-Amino-N8-(1-phenylpyrrolidin-3-yl)-N4,N4-dipropyl-3H-1-benzazepine-4,8-dicarboxamide]	> 100000 nM	19 nM
CCCN(CCC)C(=O)C1=Cc2ccc(C(=O)N[C@H]3CCN(c4ccccc4)C3)cc2N=C(N)C1 [Example 25, 2-Amino-N8-[(3S)-1-phenylpyrrolidin-3-yl]-N4,N4-dipropyl-3H-1-benzazepine-4,8-dicarboxamide]	> 100000 nM	10 nM
CCCN(CCC)C(=O)C1=Cc2ccc(C(=O)NC3CCC(CNc4ccccc4)CC3)cc2N=C(N)C1 (stereo not shown) [Example 26, 2-Amino-N8-[4-(anilinomethyl)cyclohexyl]-N4,N4-dipropyl-3H-1-benzazepine-4,8-dicarboxamide]	> 100000 nM	9 nM
CCCN(CCC)C(=O)C1=Cc2ccc(C(=O)NC3CC(CNc4ccccc4)C3)cc2N=C(N)C1 (stereo not shown) [Example 27, 2-Amino-N8-[3-(anilinomethyl)cyclobutyl]-N4,N4-dipropyl-3H-1-benzazepine-4,8-dicarboxamide]	> 100000 nM	7 nM
CCCN(CCC)C(=O)C1=Cc2ccc(C(=O)N[C@@H]3CCN(c4ccccc4)C3)cc2N=C(N)C1 [Example 28, 2-Amino-N8-[(3R)-1-phenylpyrrolidin-3-yl]-N4,N4-dipropyl-3H-1-benzazepine-4,8-dicarboxamide]	> 100000 nM	10 nM
